The values that follow come from ChEMBL document CHEMBL1158278, “New macrocyclic spermine (budmunchiamine) alkaloids from Albizia gummifera: with some observations on the structure--activity relationships of the budmunchiamines” (J Nat Prod, 1996).

Values after ≈ are worked out from the molar mass of the structure shown.

In data set [1] the test system is Staphylococcus aureus. Nature of the data set: Antibacterial activity against Staphylococcus aureus NCTC 6751 at 50 ug/disk. The following applies: read-out: IZ. It is filed as functional.
Data set [2] concerns Staphylococcus aureus. Nature of the data set: Antibacterial activity against Staphylococcus aureus NCTC 6751. It is filed as functional.
In data set [3] the test system is Bacillus subtilis. The experiment in a line: Antibacterial activity against Bacillus subtilis NCTC 8326 at 50 ug/disk. It is filed as functional. The note with it: read-out: IZ.
The subject of data set [4] is Bacillus subtilis. The experiment in a line: Antibacterial activity against Bacillus subtilis NCTC 8326. It is filed as functional.
The subject of data set [5] is Escherichia coli. Nature of the data set: Antibacterial activity against Escherichia coli NCTC 9001 at 50 ug/disk. The following applies: read-out: IZ. Format: functional.
In data set [6] the test system is Escherichia coli. The experiment in a line: Antibacterial activity against Escherichia coli NCTC 9001. It is filed as functional.
For data set [7], the system named is Pseudomonas aeruginosa. The experiment in a line: Antibacterial activity against Pseudomonas aeruginosa NCTC 6750 at 50 ug/disk. It is filed as functional. The following applies: read-out: IZ.
The subject of data set [8] is Pseudomonas aeruginosa. Nature of the data set: Antibacterial activity against Pseudomonas aeruginosa NCTC 6750. Format: functional.
A short description of data set [9]: Toxicity against brine shrimp. It is filed as organism-based. The note with it: artemia, in vivo.

In the case of `CCCCCCCCCCCCCCCC1CC(=O)NCCCN(C)CCCCN(C)CCCN1` (configuration not stated), the zone of inhibition at 50 µg/disc worked out at 12 mm in the data set with Staphylococcus aureus [1], 11 mm in the data set on Bacillus subtilis [3], 10 mm in the data set on Escherichia coli [5] and 10 mm in the data set with Pseudomonas aeruginosa [7]. Further, the minimum inhibitory concentration (MIC) (usually the least concentration at which growth counts as inhibited) with Staphylococcus aureus [2] came out at 15 µg/mL (≈ 30.3 µM); with Bacillus subtilis [4] it was 20 µg/mL (≈ 40.4 µM); in the data set with Escherichia coli [6], 27 µg/mL (≈ 54.6 µM); with Pseudomonas aeruginosa [8], 32 µg/mL (≈ 64.7 µM). For the same compound, the 50% lethal concentration (LC50) (as a rule, the concentration that kills 50% of the test population) in data set [9] stood at 16.5 µg/mL (≈ 33.3 µM).
Regarding `CCCCCCCCCC(O)CCCCCC1CC(=O)NCCCN(C)CCCCN(C)CCCN1C` (configuration not stated), the zone of inhibition at 50 µg/disc turned out to be 9 mm in the data set with Staphylococcus aureus [1], 8 mm in the data set with Bacillus subtilis [3], 7 mm with Escherichia coli [5] and 8 mm with Pseudomonas aeruginosa [7]. Moreover, the minimum inhibitory concentration (MIC) in the data set on Staphylococcus aureus [2] is 30 µg/mL (≈ 57.2 µM); against Bacillus subtilis [4], 42 µg/mL (≈ 80 µM); against Escherichia coli [6] it was 64 µg/mL (≈ 122 µM); against Pseudomonas aeruginosa [8], 75 µg/mL (≈ 143 µM). The LC50 in [9] came to 69.1 µg/mL (≈ 132 µM).
As for `CCCCCCCCCCCCCC1CC(=O)NCCCN(C)CCCCN(C)CCCN1` (configuration not stated) [BUDMUNCHIAMINE G], the zone of inhibition at 50 µg/disc in the data set with Staphylococcus aureus [1] was determined as 10 mm; in the data set on Bacillus subtilis [3], 12 mm; in the data set on Escherichia coli [5], 10 mm; in the data set with Pseudomonas aeruginosa [7], 9 mm. Moreover, the MIC in the data set on Staphylococcus aureus [2] was 18 µg/mL (≈ 38.6 µM); against Bacillus subtilis [4], 24 µg/mL (≈ 51.4 µM); in the data set on Escherichia coli [6], 30 µg/mL (≈ 64.3 µM); against Pseudomonas aeruginosa [8], 35 µg/mL (≈ 75 µM). Also, the 50% lethal concentration (LC50) in data set [9] was 12.3 µg/mL (≈ 26.3 µM).
With `O=C(N[C@H](CO)[C@H](O)c1ccc([N+](=O)[O-])cc1)C(Cl)Cl` [CHLORAMPHENICOL], the zone of inhibition at 50 µg/disc in the data set on Staphylococcus aureus [1] was determined as 24 mm; with Bacillus subtilis [3], 31 mm; in the data set on Escherichia coli [5], 26 mm; with Pseudomonas aeruginosa [7] it was 17 mm. The minimum inhibitory concentration (MIC) is 7 µg/mL (≈ 21.7 µM) against Staphylococcus aureus [2], 7 µg/mL (≈ 21.7 µM) against Bacillus subtilis [4], 12 µg/mL (≈ 37.1 µM) in the data set with Escherichia coli [6] and 26 µg/mL (≈ 80.5 µM) in the data set on Pseudomonas aeruginosa [8].
Regarding `CCCCCCCCCCCCCCCC1CC(=O)NCCCNCCCCN(C)CCCN1C` (configuration not stated), the zone of inhibition at 50 µg/disc was 11 mm in the data set with Staphylococcus aureus [1], 10 mm in the data set with Bacillus subtilis [3], 9 mm with Escherichia coli [5] and 10 mm with Pseudomonas aeruginosa [7]. The compound also had an LC50 in data set [9] of 18.2 µg/mL (≈ 36.8 µM).
Consider `CCCCCCCC(O)CCCCCC1CC(=O)NCCCN(C)CCCCN(C)CCCN1C` (configuration not stated), for which the zone of inhibition at 50 µg/disc stood at 8 mm in the data set on Staphylococcus aureus [1], 8 mm with Bacillus subtilis [3], 7 mm with Escherichia coli [5] and 7 mm with Pseudomonas aeruginosa [7]. Also, the MIC came to 35 µg/mL (≈ 70.4 µM) with Staphylococcus aureus [2], 45 µg/mL (≈ 90.6 µM) in the data set with Bacillus subtilis [4], 72 µg/mL (≈ 145 µM) in the data set with Escherichia coli [6] and 84 µg/mL (≈ 169 µM) against Pseudomonas aeruginosa [8]. The LC50 in data set [9] was 79.7 µg/mL (≈ 160 µM).
On to `CCCCCCCCCCCCCCCC1CC(=O)NCCCN(C)CCCCN(C)CCCN1C` (configuration not stated) [BUDMUNCHIAMINE K], for which the zone of inhibition at 50 µg/disc was determined as 11 mm in the data set on Staphylococcus aureus [1], 10 mm with Bacillus subtilis [3], 11 mm in the data set with Escherichia coli [5] and 11 mm with Pseudomonas aeruginosa [7]. For the same compound, the MIC worked out at 15 µg/mL (≈ 29.5 µM) against Staphylococcus aureus [2], 19 µg/mL (≈ 37.3 µM) in the data set on Bacillus subtilis [4], 24 µg/mL (≈ 47.2 µM) with Escherichia coli [6] and 28 µg/mL (≈ 55 µM) against Pseudomonas aeruginosa [8]. The compound also displayed a median lethal concentration (LC50) in data set [9] of 6.6 µg/mL (≈ 13 µM).
Turning to `CCCCCCCCCC(O)CCCCCC1CC(=O)NCCCN(C)CCCCN(C)CCCN1` (configuration not stated), the zone of inhibition at 50 µg/disc with Staphylococcus aureus [1] was 9 mm; in the data set on Bacillus subtilis [3], 9 mm; in the data set with Escherichia coli [5] it was 7 mm; in the data set on Pseudomonas aeruginosa [7], 7 mm. For the same compound, the LC50 in data set [9] amounted to 60.4 µg/mL (≈ 118 µM).
`CCCCCCCCCCCC1CC(=O)NCCCN(C)CCCCN(C)CCCN1C` (configuration not stated) [BUDMUNCHIAMINE A]: the zone of inhibition at 50 µg/disc in the data set with Staphylococcus aureus [1] came out at 10 mm; in the data set with Bacillus subtilis [3], 11 mm; in the data set with Escherichia coli [5] it was 11 mm; in the data set on Pseudomonas aeruginosa [7], 10 mm. For the same compound, the MIC came to 18 µg/mL (≈ 39.8 µM) in the data set on Staphylococcus aureus [2], 15 µg/mL (≈ 33.1 µM) against Bacillus subtilis [4], 25 µg/mL (≈ 55.2 µM) with Escherichia coli [6] and 30 µg/mL (≈ 66.3 µM) against Pseudomonas aeruginosa [8]. For the same compound, the 50% lethal concentration (LC50) in [9] turned out to be 4 µg/mL (≈ 8.83 µM).
On to `CCCCCCCCCCCCCCCC1CC(=O)NCCCN(C)CCCCNCCCN1C` (configuration not stated), for which the zone of inhibition at 50 µg/disc in the data set on Staphylococcus aureus [1] came to 11 mm; in the data set with Bacillus subtilis [3] it was 10 mm; in the data set on Escherichia coli [5] it was 9 mm; with Pseudomonas aeruginosa [7] it was 9 mm. The 50% lethal concentration (LC50) in data set [9] was determined as 15.9 µg/mL (≈ 32.1 µM).
